Drawing on patent US20060089499A1, “Pyrazolopyrimidines and the use thereof for controlling harmful organisms” (priority 2002, published 2006), this text covers chromatographic logP and pest or weed control for 56 molecules.

Data set [1] can be described thus: physchem.
The subject of data set [2] is Venturia inaequalis. Description: Venturia test (apple)/protective. Format: in vivo. To be noted: topical, 240 h, protective, application rate 100 g/ha, evaluation 10 days after inoculation, read-out: Efficacy in %. How it is done: Venturia Test (Apple)/Protective [table] To produce a suitable preparation of active compound, 1 part by weight of active compound is mixed with the stated amounts of solvent and emulsifier, and the concentrate is diluted with water to the desired concentration. To test for protective activity, young plants are sprayed with the preparation of active compound at the stated application rate. After the spray coating has dried on, the plants are inoculated with an aqueous conidia suspension of the apple scab pathogen Venturia inaequalis and then remain in an incubation cabin at about 20° C. and 100% relative atmospheric humidity for 1 day. The plants are then placed in a greenhouse at about 21° C. and a relative atmospheric humidity of about 90%.

Data set [3] concerns Botrytis cinerea. The data set is described as follows: Botrytis test (bean)/protective. Format: in vivo. To be noted: topical, 48 h, protective, application rate 500 g/ha, evaluation 2 days after inoculation, read-out: Efficacy in %. How it is done:
Botrytis Test (Bean)/Protective
To produce a suitable preparation of active compound, 1 part by weight of active compound is mixed with the stated amounts of solvent and emulsifier, and the concentrate is diluted with water to the desired concentration. To test for protective activity, young plants are sprayed with the preparation of active compound at the stated application rate. After the spray coating has dried on, 2 small pieces of agar colonized by Botrytis cinerea are placed onto each leaf. The inoculated plants are placed in a dark chamber at about 20° C. and 100% relative atmospheric humidity.
2 days after the inoculation, the size of the infected areas on the leaves is evaluated. 0% means an efficacy which corresponds to that of the control, whereas an efficacy of 100% means that no infection is observed.

One may read the chromatographic logP as a lipophilicity value derived from retention on a column. Read a low chromatographic logP as lower lipophilicity. With `C[C@H](Nc1c(-c2ccc(F)cc2Cl)c(Cl)nc2c(C#N)cnn12)C(F)(F)F` (single isomer, unassigned) [Example 1], the chromatographic logP in data set [1] (log P) was determined as 3.88.

Turning to `C[C@H](Nc1c(-c2c(F)cc(F)cc2F)c(Cl)nc2c(Cl)cnn12)C(F)(F)F` [Example 3, N-[3,5-dichloro-6-(2,4,6-trifluorophenyl)pyrazolo[1,5-a]pyrimidin-7-yl]-N-[(1S)-2,2,2-trifluoro-1-methylethyl]amine], the chromatographic logP in data set [1] (log P) came out at 4.43.

Take `CC(C)C(C)Nc1c(-c2c(F)cccc2Cl)cnc2c(C#N)cnn12` (stereo not shown) [Example 4, 6-(2-chloro-6-fluorophenyl)-7-[(1,2-dimethylpropyl)amino)pyrazolo[1,5-a]pyrimidine-3-carbonitrile]: the chromatographic logP in data set [1] (log P) worked out at 3.78.

In turn, `CC(C)C(C)Nc1c(-c2ccc(F)cc2Cl)cnc2c(Cl)cnn12` (stereo not shown) [Example 5, N-[3-chloro-6-(2-chloro-4-fluorophenyl)pyrazolo[1,5-a]pyrimidin-7-yl]-N-(1,2-dimethylpropyl)amine] came in with a chromatographic logP in data set [1] (log P) of 4.53.

On to `CC(Nc1c(-c2ccc(F)cc2Cl)c(Cl)nc2c(C=O)cnn12)C(C)(C)C` (stereo not shown) [Example 401, 3-formyl-5-chloro-6-(2-chloro-4-fluorophenyl)-7-(1,2,2-trimethylpropylamino)pyrazolo[1,5a]pyrimidine], for which the chromatographic logP in data set [1] (log P) and in data set [1] (logP) was 4.43 in each case.

As for `CO/N=C\c1cnn2c(NC(C)C(C)(C)C)c(-c3ccc(F)cc3Cl)c(Cl)nc12` (stereo not shown) [Example 402, 3-methoximino-5-chloro-6-(2-chloro-4-fluorophenyl)-7-(1,2,2-trimethylpropylamino)pyrazolo[1,5a]pyrimidine], the chromatographic logP in data set [1] (log P) and in data set [1] (logP) was 5.48 in each case.

Regarding `N#Cc1cnn2c(Cl)c(-c3ccc(F)cc3Cl)c(Cl)nc12` [Example 441, 3-cyano-5,7-dichloro-6-(2-chloro-4-fluorophenyl)pyrazolo[1,5-a]pyrimidine], in data set [1] (log P), the chromatographic logP came to 3.48.

The molecule `Fc1cc(F)c(-c2c(Cl)nc3c(Cl)cnn3c2Cl)c(F)c1` [Example 442, 3,5,7-trichloro-6-(2,4,6-trifluorophenyl)pyrazolo[1,5-a]pyrimidine] returned a chromatographic logP in data set [1] (log P) of 3.97.

For `Fc1ccc(-c2cnc3c(Cl)cnn3c2Cl)c(Cl)c1` [Example 443, 3,7-dichloro-6-(2-chloro-4-fluorophenyl)pyrazolo[1,5-a]pyrimidine], the chromatographic logP in data set [1] (log P) stood at 3.56.

`C=C(C)CN(CC)c1c(-c2c(F)cc(F)cc2F)c(Cl)nc2c(C#N)cnn12` [compound 6] had a chromatographic logP in data set [1] (logP) of 4.6.

The molecule `C[C@H](Nc1c(-c2c(F)cc(F)cc2F)c(Cl)nc2c(C#N)cnn12)C(F)(F)F` [compound 7] had a chromatographic logP in data set [1] (logP) of 3.69.

In the case of `C[C@H](Nc1c(-c2c(F)cccc2Cl)c(Cl)nc2c(C#N)cnn12)C(F)(F)F` [compound 12], the chromatographic logP in data set [1] (logP) was determined as 3.73.

With `C=C(C)CN(CC)c1c(-c2c(F)cccc2Cl)c(Cl)nc2c(C#N)cnn12` [compound 13], the chromatographic logP in data set [1] (logP) is 4.68.

In data set [1] (logP), `N#Cc1cnn2c(N3CCOCC3)c(-c3c(F)cccc3Cl)c(Cl)nc12` [compound 14] had a chromatographic logP of 3.26.

In data set [1] (logP), `N#Cc1cnn2c(N3CCCCC3)c(-c3c(F)cccc3Cl)c(Cl)nc12` [compound 21] gave a chromatographic logP of 4.32.

The molecule `CC1CCN(c2c(-c3c(F)cccc3Cl)c(Cl)nc3c(C#N)cnn23)CC1` [compound 28] had a chromatographic logP in data set [1] (logP) of 4.77.

`N#Cc1cnn2c(NCC3CC3)c(-c3c(F)cccc3Cl)c(Cl)nc12` [compound 29] came in with a chromatographic logP in data set [1] (logP) of 3.74.

In data set [1] (logP), `N#Cc1cnn2c(N3CCC(F)CC3)c(-c3c(F)cccc3Cl)c(Cl)nc12` [compound 34] had a chromatographic logP of 3.82.

Molecule `CC(C)CN(C)c1c(-c2c(F)cccc2Cl)c(Cl)nc2c(C#N)cnn12` [compound 46] came in with a chromatographic logP in data set [1] (logP) of 4.51.

In turn, `CCC(C)Nc1c(-c2c(F)cc(F)cc2F)c(Cl)nc2c(C#N)cnn12` (stereo not shown) [compound 50] yielded a chromatographic logP in data set [1] (logP) of 3.89.

As for `CC(C)Nc1c(-c2c(F)cc(F)cc2F)c(Cl)nc2c(C#N)cnn12` [compound 52], the chromatographic logP in data set [1] (logP) was 3.54.

In the case of `N#Cc1cnn2c(NCC3CC3)c(-c3c(F)cc(F)cc3F)c(Cl)nc12` [compound 54], the chromatographic logP in data set [1] (logP) was found to be 3.63. This chromatographic logP and that of the molecule before are within 0.2 log units of each other.

`C[C@H](Nc1c(-c2ccccc2F)c(Cl)nc2c(C#N)cnn12)C(F)(F)F` [compound 74] returned a chromatographic logP in data set [1] (logP) of 3.49.

As to `CC1CCN(c2c(-c3ccccc3Cl)c(Cl)nc3c(C#N)cnn23)CC1` [compound 95], the chromatographic logP in data set [1] (logP) came out at 4.78.

Consider `CC(C)CN(C)c1c(-c2c(F)cc(F)cc2F)c(Cl)nc2c(C#N)cnn12` [compound 108], for which, in data set [1] (logP), the chromatographic logP turned out to be 4.37.

`C=C(C)CN(C)c1c(-c2c(F)cc(F)cc2F)c(Cl)nc2c(C#N)cnn12` [compound 110] displayed a chromatographic logP in data set [1] (logP) of 4.24.

On to `CC(C)CN(C)c1c(-c2ccccc2Cl)c(Cl)nc2c(C#N)cnn12` [compound 138], for which the chromatographic logP in data set [1] (logP) was 4.51.

In data set [1] (logP), `CC(C)CNc1c(-c2ccc(F)cc2F)c(Cl)nc2c(C#N)cnn12` [compound 148] returned a chromatographic logP of 3.87.

In turn, `N#Cc1cnn2c(N3CCC(F)(F)CC3)c(-c3c(F)cc(F)cc3F)c(Cl)nc12` [compound 230] yielded a chromatographic logP in data set [1] (logP) of 3.81. The chromatographic logP values of the last two molecules are within 0.2 log units of each other.

`Fc1cc(F)c(-c2c(Cl)nc3c(Cl)cnn3c2N2CCC(F)(F)CC2)c(F)c1` [compound 231] returned a chromatographic logP in data set [1] (logP) of 4.61.

Regarding `CC1CCN(c2c(-c3c(F)cccc3Cl)c(Cl)nc3c(C#N)cnn23)CC1` [drawing 92], the pest or weed control at 100 g/ha in data set [2] is 97%.

With `N#Cc1cnn2c(NCC3CC3)c(-c3c(F)cccc3Cl)c(Cl)nc12` [drawing 93], the pest or weed control at 100 g/ha in data set [2] is 100%.

For the molecule `C=C(C)CN(CC)c1c(-c2c(F)cc(F)cc2F)c(Cl)nc2c(C#N)cnn12` [drawing 94], the pest or weed control at 100 g/ha in data set [2] was 100%.

On to `C[C@H](Nc1c(-c2c(F)cc(F)cc2F)c(Cl)nc2c(C#N)cnn12)C(F)(F)F` [drawing 95], for which the pest or weed control at 100 g/ha in data set [2] was 100%.

Turning to `C[C@H](Nc1c(-c2c(F)cc(F)cc2F)c(Cl)nc2c(Cl)cnn12)C(F)(F)F` [drawing 96], the pest or weed control at 100 g/ha in data set [2] is 98%.

Turning to `Fc1cc(F)c(-c2c(Cl)nc3c(Cl)cnn3c2N2CCC(F)(F)CC2)c(F)c1` [drawing 97], in data set [2], the pest or weed control at 100 g/ha was 100%.

Take `N#Cc1cnn2c(N3CCCCC3)c(-c3c(F)cccc3Cl)c(Cl)nc12` [drawing 111]: in data set [3], the pest or weed control at 500 g/ha came out at 93%.

In the case of `CC1CCN(c2c(-c3c(F)cccc3Cl)c(Cl)nc3c(C#N)cnn23)CC1` [drawing 112], in data set [3], the pest or weed control at 500 g/ha stood at 96%.

Turning to `N#Cc1cnn2c(NCC3CC3)c(-c3c(F)cccc3Cl)c(Cl)nc12` [drawing 113], in data set [3], the pest or weed control at 500 g/ha was found to be 99%.

On to `C=C(C)CN(CC)c1c(-c2c(F)cc(F)cc2F)c(Cl)nc2c(C#N)cnn12` [drawing 114], for which the pest or weed control at 500 g/ha in data set [3] amounted to 100%.

Consider `C[C@H](Nc1c(-c2c(F)cc(F)cc2F)c(Cl)nc2c(C#N)cnn12)C(F)(F)F` [drawing 115], for which the pest or weed control at 500 g/ha in data set [3] stood at 99%.

With `C[C@H](Nc1c(-c2c(F)cc(F)cc2F)c(Cl)nc2c(Cl)cnn12)C(F)(F)F` [drawing 116], the pest or weed control at 500 g/ha in data set [3] was 100%.

As for `Fc1cc(F)c(-c2c(Cl)nc3c(Cl)cnn3c2N2CCC(F)(F)CC2)c(F)c1` [drawing 117], in data set [3], the pest or weed control at 500 g/ha came out at 95%.

Consider `CC(C)[C@@H](C)Nc1c(-c2c(F)cc(F)cc2F)c(Cl)nc2c(C#N)cnn12` [drawing 118], for which, in data set [3], the pest or weed control at 500 g/ha was 96%.

Take `CCC(C)Nc1c(-c2c(F)cc(F)cc2F)c(Cl)nc2c(C#N)cnn12` (stereo not shown) [drawing 119]: the pest or weed control at 500 g/ha in data set [3] was 97%.

With `CC(C)Nc1c(-c2c(F)cc(F)cc2F)c(Cl)nc2c(C#N)cnn12` [drawing 120], in data set [3], the pest or weed control at 500 g/ha was 93%.

`CC(C)CN(C)c1c(-c2c(F)cc(F)cc2F)c(Cl)nc2c(C#N)cnn12` [drawing 121]: the pest or weed control at 500 g/ha in data set [3] came to 100%.

With `C=C(C)CN(C)c1c(-c2c(F)cc(F)cc2F)c(Cl)nc2c(C#N)cnn12` [drawing 122], the pest or weed control at 500 g/ha in data set [3] was determined as 100%.

`CC(Nc1c(-c2ccc(F)cc2Cl)c(Cl)nc2c(C#N)cnn12)C(F)(F)F` (stereo not shown) [drawing 123]: the pest or weed control at 500 g/ha in data set [3] amounted to 99%.

As for `C[C@H](Nc1c(-c2ccc(F)cc2Cl)c(Cl)nc2c(C#N)cnn12)C(F)(F)F` [drawing 124], in data set [3], the pest or weed control at 500 g/ha is 100%.

Regarding `CC(C)CN(C)c1c(-c2ccccc2Cl)c(Cl)nc2c(C#N)cnn12` [drawing 125], in data set [3], the pest or weed control at 500 g/ha stood at 100%.

For the molecule `CC1CCN(c2c(-c3ccccc3Cl)c(Cl)nc3c(C#N)cnn23)CC1` [drawing 126], the pest or weed control at 500 g/ha in data set [3] was found to be 95%.

For `N#Cc1cnn2c(N3CCC(F)CC3)c(-c3c(F)cccc3Cl)c(Cl)nc12` [drawing 127], the pest or weed control at 500 g/ha in data set [3] was determined as 94%.

Turning to `CC(C)CN(C)c1c(-c2c(F)cccc2Cl)c(Cl)nc2c(C#N)cnn12` [drawing 128], the pest or weed control at 500 g/ha in data set [3] worked out at 99%.

Consider `C=C(C)CN(CC)c1c(-c2c(F)cccc2Cl)c(Cl)nc2c(C#N)cnn12` [drawing 129], for which, in data set [3], the pest or weed control at 500 g/ha worked out at 100%.

With `C[C@H](Nc1c(-c2c(F)cccc2Cl)c(Cl)nc2c(C#N)cnn12)C(F)(F)F` [drawing 130], the pest or weed control at 500 g/ha in data set [3] worked out at 100%.
